Tests used:
[1] = prior studies; cited from earlier work
[2] = Heart phospholipid fatty acid composition of pigs fed SDA; format: in vivo; conditions: for Average heart DHA level, percent of total fatty acids / Average heart EPA level, percent of total fatty acids / Average heart SDA level, percent of total fatty acids: 35 days
Procedure: After completion of the feeding phase, animals were slaughtered and tissues were collected for evaluation. A sample of brain was obtained by making a cup from the occipital condyle at the base of the skull to the back of the eye. A portion of the brain from the cerebral cortex, and some of the mid brain was collected. About 1 g of frozen heart or brain tissue was pulverized in a stainless steel mortar and pestle maintained at −70° C. It was then suspended in 2 mL of ice-cold saline and sonicated on ice to thoroughly disperse the tissue. The lipids were extracted with methylene chloride:methanol. The PL fractions were isolated by thin layer chromatography and methylated for 10 minutes in BF3-methanol at 100° C. After extraction of the fatty acid methyl esters (FAME) with hexane:water, their composition was analyzed in a GC2010 (Shimadzu Scientific Instruments, Columbia, Md.) using a fused silica capillary columns (SP-2560, 100 m length, 0.25 mm internal diameter, 0.25 um film thickness, Supelco, Bellefonte, Pa.). A weighed external standard fatty acid (FA) mixture (GLC727, NuCheck Prep, Elysian, Minn.) was included to correct for potential differences in FA response factors. The response factor for palmitic acid of is assumed to be 1.0. Results were expressed as a percent of total identified FA (for composition endpoints) and as mg FA/g tissue.

CC/C=C\C/C=C\C/C=C\C/C=C\CCCCC(=O)O [SDA, stearidonic acid]
DHA concentrations in blood or tissues after feeding SDA [1]: failed to find evidence of increased DHA concentrations | Average heart DHA level, percent of total fatty acids ([2]; SDA 0.2%): 0.49% | Average heart EPA level, percent of total fatty acids ([2]; SDA 0.2%): 1.82% | Average heart SDA level, percent of total fatty acids ([2]; SDA 0.2%): 0.05% | Average heart DHA level, percent of total fatty acids ([2]; SDA 0.4%): 0.42% | Average heart EPA level, percent of total fatty acids ([2]; SDA 0.4%): 3.86% | Average heart SDA level, percent of total fatty acids ([2]; SDA 0.4%): 0.13% | Average heart DHA level, percent of total fatty acids ([2]; SDA 0.6%): 0.57% | Average heart EPA level, percent of total fatty acids ([2]; SDA 0.6%): 4.83% | Average heart SDA level, percent of total fatty acids ([2]; SDA 0.6%): 0.19% | Average heart DHA level, percent of total fatty acids ([2]; SDA 0.8%): 0.62% | Average heart EPA level, percent of total fatty acids ([2]; SDA 0.8%): 6.71% | Average heart SDA level, percent of total fatty acids ([2]; SDA 0.8%): 0.36% | Dose response for deposition of SDA, EPA and DHA in heart phospholipids ([2]; regression analysis on the mean response at each dose level): statistically significant (p<0.05)

Source: patent publication US20090197955A1, “METHODS OF IMPROVING DHA DEPOSITION AND RELATED FUNCTION AND/OR DEVELOPMENT” (Monsanto Company, priority 2008, published 2009)
